In ChEMBL document CHEMBL5029196, “Novel Isoindolone Compounds as HPK1 Inhibitors for Treating Cancer” (ACS Med Chem Lett, 2022):

Each compound was assayed against Mitogen-activated protein kinase kinase kinase kinase 1 (Homo sapiens, UniProt Q92918) (assay: Inhibition of human full length recombinant HPK1 using 5FAM-AKRRRLSSLRACOOH as substrate preincubated for 20 mins and measured for 60 mins by microfluidic mobility shift assay).
Sequence of Mitogen-activated protein kinase kinase kinase kinase 1 (Q92918 whole entry): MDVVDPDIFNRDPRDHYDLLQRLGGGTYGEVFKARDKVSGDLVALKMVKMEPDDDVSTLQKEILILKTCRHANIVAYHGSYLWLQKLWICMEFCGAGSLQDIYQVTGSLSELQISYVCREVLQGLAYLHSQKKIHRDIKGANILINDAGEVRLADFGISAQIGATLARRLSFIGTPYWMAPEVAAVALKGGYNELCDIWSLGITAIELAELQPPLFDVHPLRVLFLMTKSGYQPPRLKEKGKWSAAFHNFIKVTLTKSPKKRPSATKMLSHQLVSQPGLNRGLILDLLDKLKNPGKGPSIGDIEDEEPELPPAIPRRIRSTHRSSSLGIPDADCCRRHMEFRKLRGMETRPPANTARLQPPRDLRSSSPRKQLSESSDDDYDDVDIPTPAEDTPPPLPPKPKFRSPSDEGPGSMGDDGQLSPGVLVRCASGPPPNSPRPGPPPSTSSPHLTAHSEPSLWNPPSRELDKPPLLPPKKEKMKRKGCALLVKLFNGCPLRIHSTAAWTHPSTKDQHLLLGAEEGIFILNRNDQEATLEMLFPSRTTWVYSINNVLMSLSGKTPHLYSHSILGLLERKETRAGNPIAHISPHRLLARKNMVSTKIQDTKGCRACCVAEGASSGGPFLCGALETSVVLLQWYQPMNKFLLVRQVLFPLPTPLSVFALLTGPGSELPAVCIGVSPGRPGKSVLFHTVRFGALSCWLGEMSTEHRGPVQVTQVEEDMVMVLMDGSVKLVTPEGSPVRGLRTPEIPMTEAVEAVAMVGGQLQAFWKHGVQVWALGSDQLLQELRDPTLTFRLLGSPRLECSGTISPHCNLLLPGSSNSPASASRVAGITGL

`CC[C@H](C)n1cnnc1-c1cccc(N2Cc3c(CNC)cc(N4CCCC4)cc3C2=O)n1` and `CC[C@H](C)n1cnnc1-c1cccc(N2Cc3c(CNC)cc(N(C)C)cc3C2=O)n1` are within 1.5-fold of each other in Ki: 0.3 nM for the first, 0.4 nM for the second.

`CC[C@@H](CC(F)(F)F)n1cnnc1-c1cccc(N2Cc3c(CNC)cc(OC)cc3C2=O)n1` and `COc1cc(CN)c2c(c1)C(=O)N(c1cccc(-c3nncn3[C@@H](C)CC(F)(F)F)n1)C2` are within 1.5-fold of each other in Ki: 0.4 nM for the first, 0.3 nM for the second.

First: COc1cc2c(c(S(N)(=O)=O)c1)CN(c1cccc(-c3nncn3C(C)C)n1)C2=O
Second: CNCc1cc(OC)cc2c1CN(c1cccc(-c3nncn3[C@@H](C)C3CC3)n1)C2=O
The Ki of the first is 2-fold higher: 0.4 nM for the first, 0.2 nM for the second.
